According to patent US20110212968A1, “PHENETHYLAMIDE DERIVATIVES AND THEIR HETEROCYCLIC ANALOGUES” (priority 2008, published 2011):
pIC50: −log10 of the molar value.

What was measured:
human orexin-1 receptor = target: T1, human orexin-1 receptor (Homo sapiens, UniProt O43613); test: Intracellular calcium measurement (FLIPR Tetra), orexin receptor antagonistic activity, OX1; assay type: cell-based; conditions: CHO cells expressing human orexin-1 receptor, 3 nM orexin-A
T1 construct: expressed in transfected cells; host or cells: CHO (Chinese hamster ovary) cells, kept under G418 selection
T1 sequence (O43613 1-425): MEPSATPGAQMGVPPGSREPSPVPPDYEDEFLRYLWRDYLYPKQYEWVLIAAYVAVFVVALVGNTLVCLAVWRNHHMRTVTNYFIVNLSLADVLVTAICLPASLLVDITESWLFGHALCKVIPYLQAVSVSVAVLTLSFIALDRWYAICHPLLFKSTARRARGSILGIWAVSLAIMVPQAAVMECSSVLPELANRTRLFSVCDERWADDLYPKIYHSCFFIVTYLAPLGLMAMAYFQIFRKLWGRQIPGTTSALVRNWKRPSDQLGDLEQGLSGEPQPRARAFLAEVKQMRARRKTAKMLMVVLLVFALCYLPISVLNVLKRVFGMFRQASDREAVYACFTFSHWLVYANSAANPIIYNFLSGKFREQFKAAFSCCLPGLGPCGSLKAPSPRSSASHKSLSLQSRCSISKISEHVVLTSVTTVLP
Protocol: (§1) The orexin receptor antagonistic activity of the compounds of formula (I) is determined in accordance with one of the following experimental methods.
(§2) Chinese hamster ovary (CHO) cells expressing the human orexin-1 receptor and the human orexin-2 receptor, respectively, are grown in culture medium (Ham F-12 with L-Glutamine) containing 300 μg/ml G418, 100 U/ml penicillin, 100 μg/ml streptomycin and 10% heat inactivated fetal calf serum (FCS). The cells are seeded at 20,000 cells/well into 384-well black clear bottom sterile plates (Greiner). The seeded plates are incubated overnight at 37° C. in 5% CO2.
(§3) Human orexin-A as an agonist is prepared as 1 mM stock solution in MeOH:water (1:1), diluted in HBSS containing 0.1% bovine serum albumin (BSA), NaHCO3: 0.375 g/l and 20 mM HEPES for use in the assay at a final concentration of 3 nM. Antagonists are prepared as 10 mM stock solution in DMSO, then diluted in 384-well plates, first in DMSO, then in HBSS containing 0.1% bovine serum albumin (BSA), NaHCO3: 0.375 g/l and 20 mM HEPES.
(§4) On the day of the assay, 50 μl of staining buffer (HBSS containing 1% FCS, 20 mM HEPES, NaHCO3: 0.375 g/l, 5 mM probenecid (Sigma) and 3 μM of the fluorescent calcium indicator fluo-4 AM (1 mM stock solution in DMSO, containing 10% pluronic) is added to each well.
(§5) The 384-well cell-plates are incubated for 50 min at 37° C. in 5% CO2 followed by equilibration at RT for 30-120 min before measurement.
(§6) Within the Fluorescent Imaging Plate Reader (FLIPR Tetra, Molecular Devices), antagonists are added to the plate in a volume of 10 μl/well, incubated for 10 min and finally 10 μl/well of agonist is added. Fluorescence is measured for each well at 1 second intervals, and the height of each fluorescence peak is compared to the height of the fluorescence peak induced by 3 nM orexin-A with vehicle in place of antagonist. For each antagonist, the IC50 value (the concentration of compound needed to inhibit 50% of the agonistic response) is determined and may be normalized using the obtained IC50 value of a on-plate reference compound (normalized values in Table 1 are indicated by an asterisk *). With the FLIPR Tetra, two different conditions (conditions A and conditions B) were used, differing in adjustment of pipetting speed and cell splitting regime. The calculated IC50 values of the compounds may fluctuate depending on the daily cellular assay performance. Fluctuations of this kind are known to those skilled in the art.

human orexin-2 receptor = target: T2, human orexin-2 receptor (Homo sapiens, UniProt O43614); test: Intracellular calcium measurement (FLIPR Tetra), orexin receptor antagonistic activity, OX2; assay type: cell-based; conditions: CHO cells expressing human orexin-2 receptor, 3 nM orexin-A
T2 construct: expressed in transfected cells; host or cells: CHO (Chinese hamster ovary) cells, kept under G418 selection
T2 sequence (O43614 1-444): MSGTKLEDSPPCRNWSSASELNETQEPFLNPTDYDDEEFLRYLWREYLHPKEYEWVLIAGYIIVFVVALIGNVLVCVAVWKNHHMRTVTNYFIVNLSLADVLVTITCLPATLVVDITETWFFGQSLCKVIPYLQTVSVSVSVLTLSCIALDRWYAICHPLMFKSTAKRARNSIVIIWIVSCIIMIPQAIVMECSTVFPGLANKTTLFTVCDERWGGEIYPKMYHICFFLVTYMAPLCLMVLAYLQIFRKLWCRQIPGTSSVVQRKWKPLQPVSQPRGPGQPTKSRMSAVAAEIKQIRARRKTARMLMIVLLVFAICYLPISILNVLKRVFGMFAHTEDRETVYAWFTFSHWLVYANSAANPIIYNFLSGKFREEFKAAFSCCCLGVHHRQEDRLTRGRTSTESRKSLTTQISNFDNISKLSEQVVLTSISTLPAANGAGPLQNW
Protocol: as §1, §2, §3, §4, §5, §6

[1] = conditions B, normalized (*) using IC50 of on-plate reference compound

SMILES	pIC50 (human orexin-1 receptor; [1])	pIC50 (human orexin-2 receptor; [1])	other results
Cc1cccc(-c2sc(N)nc2C(=O)N(CCc2ccc3c(c2)OC(F)(F)O3)CC2CC2)c1 [Example 157, 2-Amino-5-m-tolyl-thiazole-4-carboxylic acid cyclopropylmethyl-[2-(2,2-difluoro-benzo[1,3]dioxol-5-yl)-ethyl]-amide]	–	–	pIC50 (human orexin-1 receptor; conditions B): 5.07; pIC50 (human orexin-2 receptor; conditions B): 6.13
COc1ccc(-c2nccnc2C(=O)N(CCc2c[nH]c3c(C)cccc23)CC2CC2)cn1 [Example 437, 3-(6-Methoxy-pyridin-3-yl)-pyrazine-2-carboxylic acid cyclopropylmethyl-[2-(7-methyl-1H-indol-3-yl)-ethyl]-amide]	7.37	8.52	–
COc1ccc(-c2sc(C)nc2C(=O)N(CCc2c[nH]c3cc4c(cc23)OCO4)CC2CC2)cn1 [Example 382, 5-(6-Methoxy-pyridin-3-yl)-2-methyl-thiazole-4-carboxylic acid cyclopropylmethyl-[2-(5H-[1,3]dioxolo[4,5-f]indol-7-yl)-ethyl]-amide]	6.37	7.92	–
Cc1ccc(-c2sc(N(C)C)nc2C(=O)N(CCc2nc3cc(C)c(C)cc3[nH]2)CC2CC2)cc1C [Example 377, 2-Dimethylamino-5-(3,4-dimethyl-phenyl)-thiazole-4-carboxylic acid cyclopropylmethyl-[2-(5,6-dimethyl-1H-benzoimidazol-2-yl)-ethyl]-amide]	6.94	6.58	–
Cc1cccc(-c2sc(N)nc2C(=O)N(CCc2c[nH]c3cccc(F)c23)CC2CC2)c1 [Example 231, 2-Amino-5-m-tolyl-thiazole-4-carboxylic acid cyclopropylmethyl-[2-(4-fluoro-1H-indol-3-yl)-ethyl]-amide]	–	–	pIC50 (human orexin-1 receptor; conditions B): 8.05; pIC50 (human orexin-2 receptor; conditions B): 7.57
Cc1ccc(-c2nccnc2C(=O)N(CCc2nc3cc(C)c(C)cc3[nH]2)CC2CC2)cc1C [Example 374, 3-(3,4-Dimethyl-phenyl)-pyrazine-2-carboxylic acid cyclopropylmethyl-[2-(5,6-dimethyl-1H-benzoimidazol-2-yl)-ethyl]-amide]	6.99	7.46	–
COc1ccc(CCN(CC2CC2)C(=O)c2ncsc2-c2ccccc2F)cc1OC [Example 37, 5-(2-Fluoro-phenyl)-thiazole-4-carboxylic acid cyclopropylmethyl-[2-(3,4-dimethoxy-phenyl)-ethyl]-amide]	–	–	pIC50 (human orexin-1 receptor; conditions A): 5.57; pIC50 (human orexin-2 receptor; conditions A): 8.30
COc1ccc(CCN(CC2CC2)C(=O)c2nc(N)sc2-c2cccc(C)c2)cc1OC(F)F [Example 165, 2-Amino-5-m-tolyl-thiazole-4-carboxylic acid cyclopropylmethyl-[2-(3-difluoromethoxy-4-methoxy-phenyl)-ethyl]-amide]	7.46	7.74	–
COc1ccc(CCN(CC2CC2)C(=O)c2nc(N(C)C)sc2-c2cccc(C)c2)cc1OC [Example 30, 2-Dimethylamino-5-m-tolyl-thiazole-4-carboxylic acid cyclopropylmethyl-[2-(3,4-dimethoxy-phenyl)-ethyl]-amide]	–	–	pIC50 (human orexin-1 receptor; conditions A): 6.69; pIC50 (human orexin-2 receptor; conditions A): 7.52
COc1ccc(CCN(CC2CC2)C(=O)c2cccnc2-c2ccc(C)cc2)cc1OC [Example 395, N-Cyclopropylmethyl-N-[2-(3,4-dimethoxy-phenyl)-ethyl]-2-p-tolyl-nicotinamide]	–	–	pIC50 (human orexin-1 receptor; conditions B): 6.54; pIC50 (human orexin-2 receptor; conditions B): 8.00
COc1ccc(CCN(CCO)C(=O)c2nc(C)sc2-c2ccc(C)c(C)c2)cc1OC [Example 126, 5-(3,4-Dimethyl-phenyl)-2-methyl-thiazole-4-carboxylic acid [2-(3,4-dimethoxy-phenyl)-ethyl]-(2-hydroxy-ethyl)-amide]	–	–	pIC50 (human orexin-1 receptor; conditions B): 6.77; pIC50 (human orexin-2 receptor; conditions B): 8.40
CCN(CCc1ccc(OC)c(OC)c1)C(=O)c1nc(N)sc1-c1cccc(C)c1 [Example 107, 2-Amino-5-m-tolyl-thiazole-4-carboxylic acid [2-(3,4-dimethoxy-phenyl)-ethyl]-ethyl-amide]	–	–	pIC50 (human orexin-1 receptor; conditions B): 7.39; pIC50 (human orexin-2 receptor; conditions B): 8.70
COc1ccc(CCN(CC(=O)N(C)C)C(=O)c2nc(N)sc2-c2cccc(C)c2)cc1OC [Example 135, 2-Amino-5-m-tolyl-thiazole-4-carboxylic acid [2-(3,4-dimethoxy-phenyl)-ethyl]-dimethylcarbamoylmethyl-amide]	–	–	pIC50 (human orexin-1 receptor; conditions B): < 5.00; pIC50 (human orexin-2 receptor; conditions B): 6.84
COc1ccc(CCN(CC2CC2)C(=O)c2sc(C)nc2-c2ccc(F)cc2)cc1OC [Example 50, 4-(4-Fluoro-phenyl)-2-methyl-thiazole-5-carboxylic acid cyclopropylmethyl-[2-(3,4-dimethoxy-phenyl)-ethyl]-amide]	–	–	pIC50 (human orexin-1 receptor; conditions A): < 5.00; pIC50 (human orexin-2 receptor; conditions A): 8.00
Cc1ccc(-c2ncncc2C(=O)N(CCc2c[nH]c3ccccc23)CC2CC2)cc1C [Example 504, 4-(3,4-Dimethyl-phenyl)-pyrimidine-5-carboxylic acid cyclopropylmethyl-[2-(1H-indol-3-yl)-ethyl]-amide]	7.51	7.77	–

Continued, in another order:

pIC50 (human orexin-1 receptor; [1])	pIC50 (human orexin-2 receptor; [1])	SMILES	other results
7.46	7.22	COc1ccc(-c2cccnc2C(=O)N(CCc2c[nH]c3cc(F)ccc23)CC2CC2)cn1 [Example 361]	–
7.85	7.52	COc1ccc(-c2cccnc2C(=O)N(CCc2c[nH]c3ccc(C)cc23)CC2CC2)cn1 [Example 357]	–
6.37	6.67	Cc1cc(F)cc(-c2nccnc2C(=O)N(CCc2c[nH]c3ccccc23)CC(F)(F)F)c1 [Example 556, 3-(3-Fluoro-5-methyl-phenyl)-pyrazine-2-carboxylic acid [2-(1H-indol-3-yl)-ethyl]-(2,2,2-trifluoro-ethyl)-amide]	–
6.45	7.60	COc1ccc(-c2sc(C)nc2C(=O)N(CCO)CCc2c[nH]c3ccc(F)cc23)cn1 [Example 308, 5-(6-Methoxy-pyridin-3-yl)-2-methyl-thiazole-4-carboxylic acid [2-(5-fluoro-1H-indol-3-yl)-ethyl]-(2-hydroxy-ethyl)-amide]	–
< 5.37	6.20	O=C(c1nccnc1-c1ccccc1)N(CCO)CCc1c[nH]c2ccc(F)cc12 [Example 289, 3-Phenyl-pyrazine-2-carboxylic acid [2-(5-fluoro-1H-indol-3-yl)-ethyl]-(2-hydroxy-ethyl)-amide]	–
7.00	7.28	Cc1ccc(-c2nccnc2C(=O)N(CCc2c[nH]c3c(F)cccc23)CC2CC2)cc1C [Example 340, 3-(3,4-Dimethyl-phenyl)-pyrazine-2-carboxylic acid cyclopropylmethyl-[2-(7-fluoro-1H-indol-3-yl)-ethyl]-amide]	–
6.07	6.94	COC(=O)CN(CCc1c[nH]c2ccc(F)cc12)C(=O)c1ncccc1-c1ccc(OC)nc1 [Example 315]	–
